Measurements published in patent US20140017223A1, “Pharmaceutical Compositions Comprising A Pancreatic Enzyme Preparation With Viral Infectivity Reduced Below A Significant Level And Methods Of Preparing And Using The Same” (Aptalis Pharma Canada Inc., priority 2010, published 2014).
Several values for one entry are separate records, joined by “and”; a condition that tells them apart may be missing. Identical values can stand only once.

What was measured:
Endogenous PPV = assay: Inactivation of endogenous PPV of PEP by BPL, chloroform/PEG extraction method (Example 4); type: cell-based, porcine parvovirus (PPV); details: for Detected PPV Titer: 0*=below detection limit of 63 FFID50/g PEP
Experimental: Pancrelipase powders from 2 different lots were each dissolved in 100 mM Tris, pH=8.3, at a concentration of 100 mg/ml. Two ml non-purified PPV viral stock (prepared using standard protocols (Arella et al., Physicichemical properties, production, and purification of parvoviruses. 1990, In Tijssen, P. (ed.), CRC handbook of parvoviruses. Boca Raton, Fla.: CRC Press, 11-30)) were added to 38 ml of the pancrelipase solution. The virus was mixed with the PEP using slow shaking at room temperature for one day. Aliquots were taken from the PPV-spiked pancrelipase stocks and each was incubated with different concentrations of BPL (available from Sigma-Aldrich, St. Louis, Mo.) (except the control) for 48 hours at room temperature (20° C.). The level of viral inactivation was measured by the titration of PPV infectivity using serial dilutions of 1,000 times or more since the titer of spiked virus was high. Determination of the FFID50 was performed using the fluorescence assay as described in the PPV FFID-infectivity assay of U.S. Patent Publication No. 2009/0226414.
The experiment described in Example 1 was repeated except no additional PPV was added. Like Example 3, the infectivity assay was performed after PEG/chloroform purification.

PPV [1] = assay: Kinetics of PPV inactivation in PEP samples with 0.4% BPL at 4° C. (Example 7); type: cell-based, porcine parvovirus (PPV); details: PEP conc. 100 mg/mL
Experimental: Samples prepared in the same way as described in Example 1 were treated at 4° C. in an aqueous media (i.e. mixture of water and isopropyl alcohol).

PPV [2] = assay: Inactivation of PPV by BPL (30 min, 25° C.) measured from frozen and lyophilized samples (Example 10); type: cell-based, porcine parvovirus (PPV)
Experimental: 4.5 g pancrelipase (PEP) powder was dissolved in 44 ml ice cold 100 mM Tris (pH=8.3) by frequently mixing a 50-ml plastic tube that was kept on ice most of the time except when shaking. The dissolved sample was spiked with 1 ml (2×0.5 ml) PPV stock (prepared at the Institut National de la Recherche Scientifique, Québec, Canada using standard protocols (Arella et al., Physicichemical properties, production, and purification of parvoviruses. 1990, In Tijssen, P. (ed.), CRC handbook of parvoviruses. Boca Raton, Fla.: CRC Press, 11-30)) 10^7 FFID50/ml; see Example 8 and Table 8) and was mixed for another 10 minutes.
Three aliquots of the dissolved pancrelipase were transferred into tubes (A-C) and kept on ice while (A) no BPL—the control), (B) (0.4 vol % BPL), or (C) (0.8 vol % BPL) was added to them. After a brief mixing by a vortex machine, the tubes were incubated for 30 minutes at 25° C. At the end of the incubation, the tubes were transferred on to ice and immediately four aliquots were transferred from each experimental condition into new tubes (a-d). These tubes were placed into the mixture of acetone/dry ice for fast freezing. Later, the samples were stored at −80° C.
The experiment above was repeated two more times (altogether: experiments 1-3).
The frozen samples were lyophilized at −45° C. for two days, and the pancrelipase powders were kept at 4-10° C. Samples a-b from all the experiments were dissolved in water. Infectivity measurements were done with diluted samples using the 400 times diluted samples as the lowest dilution step to determine the FFID50. To easily compare the results for the different experiments, all of the obtained infectivity data were converted to specific infectivity (FFID50/gram PEP). See Example 10 and Table 10.
Inactivation results for PEP samples containing PPV inactivated by BPL at 25° C. for 30 min which was subsequently inactivated by freezing followed by lyophilization are presented in Table 10.

lipase = assay: Lipase activity of pancrelipase after BPL treatment, freezing and lyophilization (USP 31 method); type: biochemical; details: for Loss of Lipase Activity: pancrelipase, freezing, lyophilization, precision 5-10%
Experimental: Enzymatic activity for the enzymes of a PEP (e.g., proteases, lipases, and amylases) can be determined, for example, by using the United States Pharmacopeia (USP) monographed methods (The United States Pharmacopeia and the National Formulary (USP 31/NF 26). 2008. Rockville (MD): United States Pharmacopeial Convention, Inc.).
The samples c-d from all the experiments were tested for lipase, protease, and amylase enzymatic activity using USP 31 monographed methods. See Example 11 and Table 11.
Table 11 presents the lipase, protease, and amylase activity for aliquots of the pancrelipase after BPL treatment for 30 min at 25° C. followed by freezing and lyophilization (same treatment as for samples in Example 10).

[3] = PEP # 1, endogenous PPV 3.20 × 10^3, 0.10% (v/v) BPL
[4] = PEP # 1, endogenous PPV 3.20 × 10^3, 0.25% (v/v) BPL
[5] = PEP # 2, endogenous PPV 0.10 × 10^3, 0.04% (v/v) BPL
[6] = PEP # 2, endogenous PPV 0.10 × 10^3, 0.10% (v/v) BPL
[7] = PEP # 2, endogenous PPV 0.10 × 10^3, 0.25% (v/v) BPL
[8] = PEP # 3, endogenous PPV 6.40 × 10^3, 0.10% (v/v) BPL
[9] = PEP # 3, endogenous PPV 6.40 × 10^3, 0.25% (v/v) BPL
[10] = PEP # 4, endogenous PPV 0.20 × 10^3, 0.04% (v/v) BPL
[11] = PEP # 4, endogenous PPV 0.20 × 10^3, 0.10% (v/v) BPL
[12] = PEP # 4, endogenous PPV 0.20 × 10^3, 0.25% (v/v) BPL

O=C1CCO1 [BPL, Beta-propiolactone]
Detected PPV Titer (Endogenous PPV; PEP # 1, endogenous PPV 3.20 × 10^3, 0.04% (v/v) BPL): 0.50 × 10^2 FFID50/g | PPV Titer reduction (Endogenous PPV; [3]): 10^3 FFID50/g | Detected PPV Titer (Endogenous PPV; [3]): < 0* FFID50/g | PPV Titer reduction (Endogenous PPV; [4]): 10^3 FFID50/g | Detected PPV Titer (Endogenous PPV; [4]): < 0* FFID50/g | PPV Titer reduction (Endogenous PPV; [5]): 10^3 FFID50/g | Detected PPV Titer (Endogenous PPV; [5]): < 0* FFID50/g | PPV Titer reduction (Endogenous PPV; [6]): 10^3 FFID50/g | Detected PPV Titer (Endogenous PPV; [6]): < 0* FFID50/g | PPV Titer reduction (Endogenous PPV; [7]): 10^3 FFID50/g | Detected PPV Titer (Endogenous PPV; [7]): < 0* FFID50/g | Detected PPV Titer (Endogenous PPV; PEP # 3, endogenous PPV 6.40 × 10^3, 0.04% (v/v) BPL): 4.00 × 10^2 FFID50/g | PPV Titer reduction (Endogenous PPV; [8]): 10^3 FFID50/g | Detected PPV Titer (Endogenous PPV; [8]): 0.07 × 10^2 FFID50/g | PPV Titer reduction (Endogenous PPV; [9]): 10^3 FFID50/g | Detected PPV Titer (Endogenous PPV; [9]): < 0* FFID50/g | PPV Titer reduction (Endogenous PPV; [10]): 10^3 FFID50/g | Detected PPV Titer (Endogenous PPV; [10]): < 0* FFID50/g | PPV Titer reduction (Endogenous PPV; [11]): 10^3 FFID50/g | Detected PPV Titer (Endogenous PPV; [11]): < 0* FFID50/g | PPV Titer reduction (Endogenous PPV; [12]): 10^3 FFID50/g | Detected PPV Titer (Endogenous PPV; [12]): < 0* FFID50/g | Average PPV titer (log reduction) (PPV [1]; reaction time 15 min): 1.1 log | Average PPV titer (log reduction) (PPV [1]; reaction time 30 min): 1.6 log | Average PPV titer (log reduction) (PPV [1]; reaction time 45 min): 2 log and 2.0 log | Average PPV titer (log reduction) (PPV [1]; reaction time 60 min): 2.2 log | Average PPV titer (log reduction) (PPV [1]; reaction time 720 min): 4.8 log | Reduction of PPV titer (PPV [2]; 0.4% BPL): 0.27 × 10^3 FFID50/g | Reduction of PPV titer (PPV [2]; 0.8% BPL): 1.55 × 10^6 FFID50/g | Average Results (per sample a/b) (PPV [2]; 0.8% BPL, 0* means under detection limit): < 0* FFID50/g | Average Results (per experiment) (PPV [2]; 0.8% BPL, experiments C1-C3, 0* means under detection limit): < 0* FFID50/g | PPV infectivity (single determinations) (PPV [2]; 0.8% BPL, samples C1a-C3b, 0* means under detection limit): < 0* FFID50/g | Lipase activity maintained (lipase; lyophilized samples treated with 0.4% BPL and 0.8% BPL): maintained the majority | Loss of Lipase Activity (lipase; 0.4% BPL 30 min 25° C.): 19.79% | Loss of Lipase Activity (lipase; 0.8% BPL 30 min 25° C.): 26.40%
